In ChEMBL document CHEMBL1201862, “PubChem BioAssay data set” (2004):
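Interpolation was linear, between the two tested concentrations surrounding the appropriate level; five concentrations were tested over 48 hours in 96-well plates. GI50 = concentration required for 50% inhibition of growth.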 Activity calls are given as the source filed them. Rule as the data show it: active = GI50 up to about 1.1 µM and inactive = higher.

Key:
Assay in all cases: NCI anticancer screen, dose series, 48 h
A549 = system: A549
ACHN = system: ACHN
CAKI-1 = system: CAKI-1
CCRF-CEM = system: CCRF-CEM
COLO 205 = system: COLO 205
DLD-1 = system: DLD-1
DMS-114 = system: DMS-114
DMS-273 = system: DMS-273
EKVX = system: EKVX
HCC 2998 = system: HCC 2998
HCT-116 = system: HCT-116
HCT-15 = system: HCT-15
HL-60 = system: HL-60
HOP-18 = system: HOP-18
HOP-62 = system: HOP-62
HOP-92 = system: HOP-92
HT-29 = system: HT-29
IGROV-1 = system: IGROV-1
K562 = system: K562
KM-20L2 = system: KM-20L2
KM12 = system: KM12
LOX IMVI = system: LOX IMVI
LXFL 529 = system: LXFL 529
M14 = system: M14
M19-MEL = system: M19-MEL
MOLT-4 = system: MOLT-4
Malme-3M = system: Malme-3M
NCI-H226 = system: NCI-H226
NCI-H23 = system: NCI-H23
NCI-H460 = system: NCI-H460
NCI-H522 = system: NCI-H522
OVCAR-3 = system: OVCAR-3
OVCAR-4 = system: OVCAR-4
OVCAR-5 = system: OVCAR-5
OVCAR-8 = system: OVCAR-8
RPMI-8226 = system: RPMI-8226
RXF 393 = system: RXF 393
SF-268 = system: SF-268
SF-539 = system: SF-539
SK-MEL-28 = system: SK-MEL-28
SK-MEL-2 = system: SK-MEL-2
SK-MEL-5 = system: SK-MEL-5
SK-OV-3 = system: SK-OV-3
SN12C = system: SN12C
SNB-19 = system: SNB-19
SR = system: SR
SW-620 = system: SW-620
TK-10 = system: TK-10
U-251 = system: U-251
UACC-62 = system: UACC-62
UO-31 = system: UO-31
786-0 = system: 786-0
A498 = system: A498
BT-549 = system: BT-549
DU-145 = system: DU-145
Hs-578T = system: Hs-578T
MCF7 = system: MCF7
MDA-MB-231 = system: MDA-MB-231
MDA-MB-435 = system: MDA-MB-435
MDA-N = system: MDA-N
NCI/ADR-RES = system: NCI/ADR-RES
PC-3 = system: PC-3
SF-295 = system: SF-295
SNB-75 = system: SNB-75
SNB-78 = system: SNB-78
T47D = system: T47D
UACC-257 = system: UACC-257

With COc1ccc(C[C@H](N)C(=O)N2C[C@H](CO)C[C@H](n3ccc(=O)[nH]c3=O)C2)cc1 the GI50 (A549) was > 100000 nM (inactive), the GI50 (ACHN) was > 100000 nM (inactive) and the GI50 (CAKI-1) was > 100000 nM (inactive). For the same compound, the GI50 (CCRF-CEM) was > 100000 nM (inactive), the GI50 (COLO 205) was > 100000 nM (inactive) and the GI50 (DLD-1) was > 100000 nM (inactive). The GI50 (DMS-114) was > 100000 nM (inactive), the GI50 (DMS-273) was > 100000 nM (inactive) and the GI50 (EKVX) was > 100000 nM (inactive). For the same compound, the GI50 (HCC 2998) was > 100000 nM (inactive), the GI50 (HCT-116) was > 100000 nM (inactive) and the GI50 (HCT-15) was > 100000 nM. The GI50 (HL-60) was 58300 nM (inactive), the GI50 (HOP-18) was > 100000 nM (inactive) and the GI50 (HOP-62) was > 100000 nM (inactive). The GI50 (HOP-92) was > 100000 nM (inactive), the GI50 (HT-29) was > 100000 nM (inactive) and the GI50 (IGROV-1) was > 100000 nM (inactive). The GI50 (K562) was > 100000 nM (inactive), the GI50 (KM-20L2) was > 100000 nM (inactive) and the GI50 (KM12) was > 100000 nM (inactive). The GI50 (LOX IMVI) was > 100000 nM (inactive), the GI50 (LXFL 529) was > 100000 nM (inactive) and the GI50 (M14) was > 100000 nM (inactive). For the same compound, the GI50 (M19-MEL) was > 100000 nM (inactive), the GI50 (MOLT-4) was > 100000 nM (inactive) and the GI50 (Malme-3M) was > 100000 nM (inactive). For the same compound, the GI50 (NCI-H226) was > 100000 nM (inactive), the GI50 (NCI-H23) was > 100000 nM (inactive) and the GI50 (NCI-H460) was > 100000 nM (inactive). For the same compound, the GI50 (NCI-H522) was > 100000 nM (inactive), the GI50 (OVCAR-3) was > 100000 nM (inactive) and the GI50 (OVCAR-4) was > 100000 nM (inactive). The GI50 (OVCAR-5) was > 100000 nM (inactive), the GI50 (OVCAR-8) was > 100000 nM (inactive) and the GI50 (RPMI-8226) was > 100000 nM (inactive). For the same compound, the GI50 (RXF 393) was > 100000 nM (inactive), the GI50 (SF-268) was > 100000 nM (inactive) and the GI50 (SF-539) was > 100000 nM (inactive). The GI50 (SK-MEL-28) was > 100000 nM (inactive), the GI50 (SK-MEL-2) was > 100000 nM (inactive) and the GI50 (SK-MEL-5) was > 100000 nM (inactive). For the same compound, the GI50 (SK-OV-3) was > 100000 nM (inactive), the GI50 (SN12C) was > 100000 nM (inactive) and the GI50 (SNB-19) was > 100000 nM (inactive). The GI50 (SR) was > 100000 nM (inactive), the GI50 (SW-620) was > 100000 nM (inactive) and the GI50 (TK-10) was > 100000 nM (inactive). For the same compound, the GI50 (U-251) was > 100000 nM (inactive), the GI50 (UACC-62) was > 100000 nM (inactive) and the GI50 (UO-31) was > 100000 nM (inactive).

With CO[C@H]1[C@H](O)[C@H](O[C@H]2CC[C@@]3(C)[C@H](CC[C@@H]4[C@@H]3CC[C@]3(C)[C@@H](C5=CC(=O)OC5)CC[C@]43O)C2)O[C@@H](C)[C@@H]1O [NERIIFOLIN] the GI50 (786-0) was 0.439 nM (active), the GI50 (A498) was 8.63 nM (active) and the GI50 (A549) was 0.379 nM (active). For the same compound, the GI50 (ACHN) was 0.224 nM (active), the GI50 (BT-549) was 0.429 nM (active) and the GI50 (CAKI-1) was 0.572 nM (active). For the same compound, the GI50 (CCRF-CEM) was 0.362 nM (active), the GI50 (COLO 205) was 1.8 nM (active) and the GI50 (DLD-1) was 1.84 nM (active). For the same compound, the GI50 (DMS-114) was 0.138 nM (active), the GI50 (DMS-273) was 0.548 nM (active) and the GI50 (DU-145) was < 0.1 nM (active). For the same compound, the GI50 (EKVX) was 0.473 nM (active), the GI50 (HCC 2998) was 9.4 nM (active) and the GI50 (HCT-116) was 0.689 nM (active). For the same compound, the GI50 (HCT-15) was 1.12 nM, the GI50 (HL-60) was 0.419 nM (active) and the GI50 (HOP-18) was 0.476 nM (active). For the same compound, the GI50 (HOP-62) was 0.27 nM (active), the GI50 (HOP-92) was 1.23 nM (active) and the GI50 (HT-29) was 0.615 nM (active). The GI50 (Hs-578T) was < 0.1 nM (active), the GI50 (IGROV-1) was 0.526 nM (active) and the GI50 (KM-20L2) was 3.11 nM (active). For the same compound, the GI50 (KM12) was 1.52 nM (active), the GI50 (LOX IMVI) was 0.755 nM (active) and the GI50 (LXFL 529) was 1.35 nM (active). For the same compound, the GI50 (M14) was 1.39 nM (active), the GI50 (M19-MEL) was 3.63 nM (active) and the GI50 (MCF7) was 0.76 nM (active). For the same compound, the GI50 (MDA-MB-231) was 1.65 nM (active), the GI50 (MDA-MB-435) was < 0.1 nM (active) and the GI50 (MDA-N) was < 0.1 nM (active). For the same compound, the GI50 (MOLT-4) was 0.377 nM (active), the GI50 (Malme-3M) was 0.428 nM (active) and the GI50 (NCI-H226) was 5.96 nM (active). The GI50 (NCI-H23) was 0.394 nM (active), the GI50 (NCI-H460) was 0.6 nM (active) and the GI50 (NCI-H522) was 0.151 nM (active). The GI50 (NCI/ADR-RES) was 0.546 nM (active), the GI50 (OVCAR-3) was 0.515 nM (active) and the GI50 (OVCAR-4) was 0.28 nM (active). The GI50 (OVCAR-5) was 1.54 nM (active), the GI50 (OVCAR-8) was 1.08 nM (active) and the GI50 (PC-3) was 0.724 nM (active). For the same compound, the GI50 (RPMI-8226) was 1.11 nM (active), the GI50 (RXF 393) was < 10 nM (active) and the GI50 (SF-268) was 0.444 nM (active). The GI50 (SF-295) was 0.56 nM (active), the GI50 (SF-539) was 0.569 nM (active) and the GI50 (SK-MEL-28) was 1.89 nM (active). The GI50 (SK-MEL-2) was 1.17 nM (active), the GI50 (SK-MEL-5) was 0.838 nM (active) and the GI50 (SK-OV-3) was 1.08 nM (active). The GI50 (SN12C) was 0.211 nM (active), the GI50 (SNB-19) was 0.94 nM (active) and the GI50 (SNB-75) was 0.483 nM (active). For the same compound, the GI50 (SNB-78) was 0.552 nM (active), the GI50 (SR) was < 10 nM (active) and the GI50 (SW-620) was 0.925 nM (active). For the same compound, the GI50 (T47D) was 0.628 nM (active), the GI50 (TK-10) was 0.859 nM (active) and the GI50 (U-251) was 1.32 nM (active). For the same compound, the GI50 (UACC-257) was 1.67 nM (active), the GI50 (UACC-62) was 1.55 nM (active) and the GI50 (UO-31) was 0.902 nM (active).
